# Data reported in ChEMBL document CHEMBL4665751, “Discovery of Clinical Candidate (5-(3-(4-Chlorophenoxy)prop-1-yn-1-yl)-3-hydroxypicolinoyl)glycine, an Orally Bioavailable Prolyl Hydroxylase Inhibitor for the Treatment of Anemia” (J Med Chem, 2020).
# Key:
# [1] = Acute toxicity in female Sprague-Dawley rat assessed as change in ratio of uterus with cervix to body weight at 15 to 200 mg/kg, po administered every alternate days for 2 weeks measured on day 14; format: organism-based; conditions: in vivo, 336 h, dose 15-200 mg/kg, time 14 day
# [2] = Half-life in human liver microsome at 1 uM preincubated for 5 mins followed by NADPH addition measured up to 120 mins by LC-MS/MS analysis; format: ADME; conditions: liver microsomes, time <=125 min
# Mus musculus [3] = test: In vivo inhibition of PHD2 in po dosed C57BL/6 mouse assessed as upregulation of EPO plasma level administered 4 times for 3 days by ELISA; format: functional, organism-based; conditions: dose mg/kg 5-50, time 3.0 day
# [4] = Nephrotoxicity in Sprague-Dawley rat assessed as change in creatinine level in blood at 15 to 200 mg/kg, po administered every alternate days for 2 weeks measured on day 14; format: toxicity, organism-based; conditions: in vivo, 336 h, dose 15-200 mg/kg, time 14 day
# [5] = In vivo inhibition of PHD2 in C57BL/6 mouse assessed as increase in EPO plasma level by measuring EPO level at 15 mg/kg, iv measured after 4 hrs by ELISA; format: functional
# [6] = Nephrotoxicity in male Sprague-Dawley rat assessed as effect on total protein level in blood at 15 to 200 mg/kg, iv or po administered every alternate days for 2 weeks measured on day 14; format: toxicity, organism-based; conditions: in vivo, 336 h, dose 15-200 mg/kg, time 14 day
# Egl nine homolog 1 [7] = target: T1, Egl nine homolog 1 (Homo sapiens, UniProt Q9GZT9); test: Inhibition of PHD2 in human Hep3B cells assessed as upregulation of EPO mRNA expression measured after 10 hrs by Trizol reagent based qRT-PCR analysis; format: cell-based; conditions: dose microM 5-50, time 10.0 hrs
# Mus musculus [8] = test: Antianemic activity in cisplatin-induced C57BL/6 mouse anemia model assessed as improvement in anemia at 25 mg/kg, po administered every other day for 1 month; format: functional; conditions: time 1 months, 730 h
# Hep 3B2 = test: Cytotoxicity against human Hep3B cells assessed as reduction in cell viability at 10 to 100 uM incubated for 72 hrs by MTT assay; format: cell-based; conditions: hep 3b2, 72 h, dose 10-100 µM
# [9] = Half-life in rat liver microsome at 1 uM preincubated for 5 mins followed by NADPH addition measured up to 120 mins by LC-MS/MS analysis; format: ADME; conditions: liver microsomes, time <=125 min
# [10] = AUC (0 to t) in Beagle dog at 2 mg/kg, ig by LC-MS/MS analysis; format: ADME, organism-based, Canis lupus familiaris; parameters: dose 2 mg/kg; conditions: in vivo, po
# [11] = Half-life in human L02 cells at 100 uM incubated up to 120 mins by LC-MS/MS analysis; format: ADME, cell-based
# [12] = MRT (0 to infinity) in Sprague-Dawley rat at 1 mg/kg, iv by LC-MS/MS analysis; format: ADME, organism-based; conditions: in vivo
# Egl nine homolog 1 [13] = target: T1, Egl nine homolog 1; test: Inhibition of PHD2 in human MCF7 cells assessed as upregulation of HIFalpha expression at 50 uM incubated for 24 hrs by firefly/renilla luciferase reporter gene assay relative to control; format: cell-based
# Homo sapiens = species: Homo sapiens; test: Selectivity index, ratio of IC50 for human ERG expressed in HEK293 cells by PatchLiner assay to IC50 for PHD2 (unknown origin) by O-phenyl enediamine(OPD) based fluorescence assay; format: cell-based
# [14] = Acute toxicity in male Sprague-Dawley rat assessed as increase in weight of spleen to body weight at 15 to 200 mg/kg, po administered every alternate days for 2 weeks measured on day 14; format: organism-based; conditions: in vivo, 336 h, dose 15-200 mg/kg, time 14 day
# [15] = AUC (0 to infinity) in Beagle dog at 2 mg/kg, ig by LC-MS/MS analysis; format: ADME, organism-based, Canis lupus familiaris; parameters: route […], time infinity, dose 2 mg/kg; conditions: in vivo, po
# [16] = Half-life in Beagle dog at 0.5 mg/kg, iv by LC-MS/MS analysis; format: ADME, organism-based, Canis lupus familiaris; conditions: in vivo
# Egl nine homolog 1 [17] = target: T1, Egl nine homolog 1; test: Inhibition of PHD2 in human Hep3B cells assessed as increase in EPO expression measured after 24 hrs by ELISA; format: cell-based; conditions: dose microM 5-50, time 24.0 hrs
# [18] = Half-life in Sprague-Dawley rat at 1 mg/kg, iv by LC-MS/MS analysis; format: ADME, organism-based; conditions: in vivo
# [19] = Hepatotoxicity in male Sprague-Dawley rat assessed as change in albumin level at 15 to 200 mg/kg, po administered every alternate days for 2 weeks measured on day 14; format: toxicity, organism-based; conditions: in vivo, 336 h, dose 15-200 mg/kg, time 14 day
# [20] = Half-life in Beagle dog at 2 mg/kg, ig by LC-MS/MS analysis; format: ADME, organism-based, Canis lupus familiaris; conditions: in vivo, po
# Mus musculus [21] = test: Antianemic activity in cisplatin-induced C57BL/6 mouse anemia model assessed as improvement in anemia at 10 mg/kg, po administered every other day for 1 month; format: functional; conditions: time 1 months, 730 h
# [22] = Cmax in Beagle dog at 2 mg/kg, ig by LC-MS/MS analysis; format: ADME, organism-based, Canis lupus familiaris; parameters: route […], dose 2 mg/kg; conditions: in vivo, po
# [23] = Acute toxicity in Sprague-Dawley rat assessed as change in ratio of brain to body weight at 15 to 200 mg/kg, po administered every alternate days for 2 weeks measured on day 14; format: organism-based; conditions: in vivo, 336 h, dose 15-200 mg/kg, time 14 day
# [24] = Oral bioavailability in Beagle dog at 2 mg/kg by LC-MS/MS analysis; format: ADME, organism-based, Canis lupus familiaris; conditions: in vivo
# [25] = Genotoxicity in Salmonella typhimurium TA98 at 62.5 to 1000 ug incubated for 48 to 50 hrs in absence of S9 fraction by Ames test; format: toxicity, Salmonella enterica subsp. enterica serovar Typhimurium; conditions: in vivo; dose 62.5-1000 µg, time 48-50 hrs
# Cytochrome P450 1A2 = target: T2, Cytochrome P450 1A2 (Homo sapiens, UniProt P05177); test: Inhibition of CYP1A2 (unknown origin) using phenacetin as substrate preincubated for 5 mins followed by addition of NADPH measured after 20 mins by LC-MS/MS analysis; format: ADME
# T2 sequence (P05177 whole entry): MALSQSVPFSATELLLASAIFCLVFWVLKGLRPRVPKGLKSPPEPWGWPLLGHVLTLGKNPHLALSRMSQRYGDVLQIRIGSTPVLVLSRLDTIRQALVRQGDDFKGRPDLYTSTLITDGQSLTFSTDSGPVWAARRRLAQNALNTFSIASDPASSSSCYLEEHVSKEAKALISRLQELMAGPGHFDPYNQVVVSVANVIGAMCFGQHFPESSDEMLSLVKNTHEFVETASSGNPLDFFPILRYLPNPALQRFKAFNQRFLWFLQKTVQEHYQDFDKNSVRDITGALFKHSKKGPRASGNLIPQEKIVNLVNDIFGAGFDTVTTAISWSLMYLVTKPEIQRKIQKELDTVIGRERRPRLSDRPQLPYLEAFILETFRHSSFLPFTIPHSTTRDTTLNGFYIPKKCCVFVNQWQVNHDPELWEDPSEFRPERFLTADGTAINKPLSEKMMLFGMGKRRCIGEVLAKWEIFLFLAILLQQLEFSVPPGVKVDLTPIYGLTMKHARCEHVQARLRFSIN
# T1 sequence (Q9GZT9 2-426 limits assumed): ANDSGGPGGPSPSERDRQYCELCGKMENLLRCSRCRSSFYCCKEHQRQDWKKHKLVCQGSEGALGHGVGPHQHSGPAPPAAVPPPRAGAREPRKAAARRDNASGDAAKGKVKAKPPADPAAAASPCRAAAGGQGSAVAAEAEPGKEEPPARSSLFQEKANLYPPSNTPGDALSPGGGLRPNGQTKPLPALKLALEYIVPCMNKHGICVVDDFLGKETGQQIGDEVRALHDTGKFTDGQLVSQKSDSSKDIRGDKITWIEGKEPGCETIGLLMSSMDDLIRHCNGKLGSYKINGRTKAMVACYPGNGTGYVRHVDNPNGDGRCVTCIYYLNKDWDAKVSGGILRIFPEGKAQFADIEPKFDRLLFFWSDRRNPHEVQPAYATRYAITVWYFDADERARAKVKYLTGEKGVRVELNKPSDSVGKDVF
smiles,measurement,setting,value
O=C(O)CNC(=O)c1ncc(C#CCOc2ccc(Cl)cc2)cc1O [DDO-3055],Activity,[1],Non-Toxic
same,half-life at 1 µM,[2],> 2.32 h
same,inhibition,Mus musculus [3],Dose-dependent effect
same,Activity,[4],Non-Toxic
same,Activity,[5],>1000 pg/mL
same,Activity,[6],Non-Toxic
same,inhibition,Egl nine homolog 1 [7],Dose-dependent effect
same,Activity,Mus musculus [8],104.5%
same,Activity,Hep 3B2,Non-Toxic
same,half-life at 1 µM,[9],> 1.12 h
same,AUC(0-t),[10],1.36 µg·h/mL
same,half-life at 100 µM,[11],17.7 h
same,MRT inf,[12],3.44 h
same,fold change (FC),Egl nine homolog 1 [13],7
same,Ratio IC50,Homo sapiens,> 467
same,Activity,[14],Toxic
same,AUC(0-inf),[15],1.37 µg·h/mL
same,half-life,[16],2.91 h
same,inhibition,Egl nine homolog 1 [17],Dose-dependent effect
same,half-life,[18],8.43 h
same,Activity,[19],Non-Toxic
same,half-life,[20],4.19 h
same,Activity,Mus musculus [21],83.3%
same,Cmax,[22],0.735 µg/mL
same,Activity,[23],Non-Toxic
same,bioavailability,[24],54%
same,Activity,[25],Non-Toxic
same,IC50,Cytochrome P450 1A2,> 30 µM
